Reference: publication PMC11601558, “SLC6A19 inhibition facilitates urinary neutral amino acid excretion and lowers plasma phenylalanine” (JCI Insight, 2024)
Several values for one entry are separate records, joined by “and”; a condition that tells them apart may be missing. Equal values may be shown once. Blank lines part the entries; values can stand above or below the compound they belong to.

Key:
[1] = JN-170 plasma pharmacokinetics in C57Bl/6J mice, single oral dose; format: in vivo, mouse; design: JN-170 plasma level (Fig 2a): unit not given here
Description: Male homozygous BTBR-Pah<enu2>/J (Pah^enu2) aged 10–13 weeks were purchased from Jackson Laboratory (no. 002232). Immediately before dosing, each animal’s bladder was manually emptied and a plasma sample was drawn. Animals were dosed by oral gavage with vehicle (10% DMSO, 20% 2-hydroxypropyl-β-cyclodextrin [Sigma-Aldrich]) followed by a 1-week washout prior to dosing with JN-170 at doses ranging from 50 to 250 mg/kg. Following dosing with vehicle or JN-170, animals were individually placed in metabolic cages to collect urine samples. After collection of each urine sample, cages were rinsed with ultra-pure water to recover residual analytes. Blood samples were collected predose as well as 1, 3, 8, 12, and 24 hours after dosing with vehicle or JN-170 into tubes with EDTA as a […], and plasma was separated by centrifuging samples at 2,200g for 5 minutes at 4°C. Throughout the study, mice had access to food and water ad libitum. Plasma and urine samples were stored at –80°C until processing.Ten-week-old male WT C57Bl/6J animals (Si Bei Fu Laboratory Animal Technology Co. Ltd.) were dosed either with vehicle or 50–250 mg/kg JN-170 by oral gavage and blood and urine samples were collected as described. All animals had unrestricted access to food and water during the study; C57Bl/6J were kept on rodent maintenance diet from Beijing Keao Xieli, Pah^enu2 mice were kept on Teklad diet no. T.2018.
Plasma sample analyses were carried out by liquid chromatography tandem mass spectrometry (LC-MS/MS). Plasma samples were mixed 1:1 with carbamazepine or ^13C6-Phe as internal standards for JN-170 and Phe, respectively. Plasma proteins were precipitated by adding 4 volumes of acetonitrile (ACN) and 0.1% formic acid (FA) followed by centrifugation for 5 minutes at 2,100g. Supernatants were diluted 1:1 in ACN and 0.1% FA. For JN-170, a Waters HSS T3 reversed phase column was used for separation using a binary gradient of 0.1% FA in water (mobile phase A) to 0.1% in ACN (mobile phase B). At a flow rate of 0.8 mL/min, the mobile phase gradient increased from an initial 25% phase B to 95% phase B over 30 seconds. After, 1.5 minutes, the gradient was returned to 25% mobile phase B. For detection of Phe, an Acquity UPLC ethylene bridged hybrid (BEH) amide column was used, with a binary gradient of 10 mM ammonium acetate in 95:5:1 H2O:ACN:FA (mobile phase A) to 10 mM ammonium acetate in 95:5:1 ACN:H2O:FA (mobile phase B). At a flow rate of 0.5 mL/min, the mobile phase gradient changed from an initial 100% phase B to 50% phase B over 2.1 minutes. It was returned to 100% phase B after 4 minutes. Analytes were detected using a Sciex API-5500 in multiple reaction monitoring mode using an electrospray ionization source in the positive ion mode with the following ion transitions: m/z 435.2/84.1 (JN-170), 237.1/194.1 (carbamazepine), 166.1/120.1 (Phe), 172.2/126.2 for (^13C6-Phe). Analyte concentrations were calculated with a 1/×^2 linear regression over a concentration range of 1 or 2 to 5,000 ng/mL for JN-170 and 0.05–100 ng/mL for Phe.

healthy volunteers = test: Phase 1 safety and tolerability, single ascending dose (SAD) cohorts; format: in vivo, human; conditions: for AEs leading to IP discontinuation / Any CTCAE Grade ≥ 3 / Any TEAE / Death / SAE / TEAE Alanine aminotransferase increased / TEAE Aspartate aminotransferase increased / TEAE Blood creatine phosphokinase increased / TEAE Catheter site pain / TEAE Dizziness / TEAE Headache / TEAE Hematuria / TEAE Nausea / TEAE Pyrexia / TEAE Syncope / TEAE Upper respiratory tract infection / TEAE Urinary tract infection: n = 6
Description: Parts A and B of this phase 1, randomized, double-blind, placebo-controlled SAD and MAD oral dose study with JNT-517 were conducted in healthy volunteers. The primary objective for these studies was to assess the safety and tolerability of single and multiple doses of JNT-517 in healthy participants. The secondary objective for these studies was to assess the PK of single and multiple oral doses of JNT-517.
Eligible participants included males and females 18 to 55 years of age, medically healthy with no clinically notable medical history, a BMI of 18–40 kg/m^2 and total body weight > 50 kg (110 lbs), and who have been nonsmokers for at least 2 weeks prior to and throughout dosing.
In total, 40 participants who were healthy adult were randomized to receive JNT-517 (10–170 mg) or placebo (3:1 ratio) in 5 cohorts of 8 participants as SADs. […] Within each SAD cohort, a sentinel group of 2 participants were initially randomized to receive JNT-517 or placebo in a 1:1 ratio. Once safety was confirmed for these 2 sentinel participants over a 48-hour observation period, the remaining 6 participants in the same cohort were randomized 5:1 to receive JNT-517 or placebo. Both JNT-517 and placebo were administered as an on-site compounded suspension.
In both SAD and MAD studies, safety and tolerability were assessed by AE monitoring, clinical laboratory tests (blood chemistries, hematology, coagulation, serology, and urinalysis), vital signs, 12-lead electrocardiograms, and physical examinations. Safety assessment and corresponding samples were collected on day-1 prior to dosing and days 1, 2, 3, and 8 for the SAD study or throughout the 14 days of dosing and day 21 for the MAD study.

JN-170 plasma level (Fig 2a) ([1]; 50 mg/kg oral, 8 h, individual C57Bl/6 mice): 54.1 | JN-170 plasma level (Fig 2a) ([1]; 100 mg/kg oral, 8 h, individual C57Bl/6 mice): 1010 and 870 and 627 | concentration at 8 h ([1]; male, C57Bl/6J, mouse, plasma, oral, 250 mg/kg, 250 mg/kg oral, 8 h, individual C57Bl/6 mice, read-out: JN-170 plasma level (Fig 2a)): 3650 ng/mL | concentration at 12 h ([1]; male, C57Bl/6J, mouse, plasma, oral, 250 mg/kg, 250 mg/kg oral, 12 h, individual C57Bl/6 mice, read-out: JN-170 plasma level (Fig 2a)): 1760 ng/mL | bioavailability ([1]; male, C57Bl/6J, mouse, plasma, po): ~5%
SMILES: N#Cc1ccc(-c2noc([C@]3(C(F)(F)F)CCN(C(=O)NCCC4(N)CC4)C3)n2)cc1 [JN-170]
JN-170 plasma level (Fig 2a) ([1]; 50 mg/kg oral, 1 h, individual C57Bl/6 mice): 4800 and 3580 and 3220 and 2280 and 3950 and 3920 | JN-170 plasma level (Fig 2a) ([1]; 50 mg/kg oral, 3 h, individual C57Bl/6 mice): 1290 and 798 and 1160 and 1370 and 1130 and 1480 | JN-170 plasma level (Fig 2a) ([1]; 100 mg/kg oral, 1 h, individual C57Bl/6 mice): 5300 and 7590 and 9540 and 8120 and 9150 and 8490 | JN-170 plasma level (Fig 2a) ([1]; 100 mg/kg oral, 3 h, individual C57Bl/6 mice): 3330 and 3500 and 3620 and 5290 and 4430 and 4000 | JN-170 plasma level (Fig 2a) ([1]; 200 mg/kg oral, 1 h, individual C57Bl/6 mice): 12900 and 18300 and 14800 and 17900 and 16400 and 14100 | JN-170 plasma level (Fig 2a) ([1]; 200 mg/kg oral, 3 h, individual C57Bl/6 mice): 9760 and 9530 and 8870 and 8820 and 12800 and 12000 | JN-170 plasma level (Fig 2a) ([1]; 200 mg/kg oral, 8 h, individual C57Bl/6 mice): 2260 and 1430 and 1410 and 2700 and 2480 and 4110 | JN-170 plasma level (Fig 2a) ([1]; 250 mg/kg oral, 1 h, individual C57Bl/6 mice): 18600 and 13000 and 21300 and 27800 and 20500 and 19600 | JN-170 plasma level (Fig 2a) ([1]; 250 mg/kg oral, 3 h, individual C57Bl/6 mice): 13400 and 8320 and 12600 and 16100 and 11000 and 13600

SMILES: NC(=O)N1CCC[C@@H](N(C(=O)NCc2ccc(OC(F)(F)F)cc2F)C2CC2)C1 [JNT-517]
AEs leading to IP discontinuation (healthy volunteers; SAD 10 mg): 0 Number (%) | Any CTCAE Grade ≥ 3 (healthy volunteers; SAD 10 mg): 0 Number (%) | Any TEAE (healthy volunteers; SAD 10 mg): 2 (33.3) Number (%) | Death (healthy volunteers; SAD 10 mg): 0 Number (%) | SAE (healthy volunteers; SAD 10 mg): 0 Number (%) | TEAE Alanine aminotransferase increased (healthy volunteers; SAD 10 mg): 0 Number (%) | TEAE Aspartate aminotransferase increased (healthy volunteers; SAD 10 mg): 0 Number (%) | TEAE Blood creatine phosphokinase increased (healthy volunteers; SAD 10 mg): 0 Number (%) | TEAE Catheter site pain (healthy volunteers; SAD 10 mg): 1 (16.7) Number (%) | TEAE Dizziness (healthy volunteers; SAD 10 mg): 1 (16.7) Number (%) | TEAE Headache (healthy volunteers; SAD 10 mg): 1 (16.7) Number (%) | TEAE Hematuria (healthy volunteers; SAD 10 mg): 0 Number (%) | TEAE Nausea (healthy volunteers; SAD 10 mg): 1 (16.7) Number (%) | TEAE Pyrexia (healthy volunteers; SAD 10 mg): 0 Number (%) | TEAE Syncope (healthy volunteers; SAD 10 mg): 0 Number (%) | TEAE Upper respiratory tract infection (healthy volunteers; SAD 10 mg): 0 Number (%) | TEAE Urinary tract infection (healthy volunteers; SAD 10 mg): 0 Number (%) | AEs leading to IP discontinuation (healthy volunteers; SAD 25 mg): 0 Number (%) | Any CTCAE Grade ≥ 3 (healthy volunteers; SAD 25 mg): 1 (16.7) Number (%) | Any TEAE (healthy volunteers; SAD 25 mg): 2 (33.3) Number (%) | Death (healthy volunteers; SAD 25 mg): 0 Number (%) | SAE (healthy volunteers; SAD 25 mg): 0 Number (%) | TEAE Alanine aminotransferase increased (healthy volunteers; SAD 25 mg): 1 (16.7) Number (%) | TEAE Aspartate aminotransferase increased (healthy volunteers; SAD 25 mg): 1 (16.7) Number (%) | TEAE Blood creatine phosphokinase increased (healthy volunteers; SAD 25 mg): 1 (16.7) Number (%) | TEAE Catheter site pain (healthy volunteers; SAD 25 mg): 0 Number (%) | TEAE Dizziness (healthy volunteers; SAD 25 mg): 0 Number (%) | TEAE Headache (healthy volunteers; SAD 25 mg): 0 Number (%) | TEAE Hematuria (healthy volunteers; SAD 25 mg): 1 (16.7) Number (%) | TEAE Nausea (healthy volunteers; SAD 25 mg): 0 Number (%) | TEAE Pyrexia (healthy volunteers; SAD 25 mg): 0 Number (%) | TEAE Syncope (healthy volunteers; SAD 25 mg): 0 Number (%) | TEAE Upper respiratory tract infection (healthy volunteers; SAD 25 mg): 0 Number (%) | TEAE Urinary tract infection (healthy volunteers; SAD 25 mg): 0 Number (%) | AEs leading to IP discontinuation (healthy volunteers; SAD 50 mg): 0 Number (%) | Any CTCAE Grade ≥ 3 (healthy volunteers; SAD 50 mg): 1 (16.7) Number (%) | Any TEAE (healthy volunteers; SAD 50 mg): 2 (33.3) Number (%) | Death (healthy volunteers; SAD 50 mg): 0 Number (%) | SAE (healthy volunteers; SAD 50 mg): 0 Number (%) | TEAE Alanine aminotransferase increased (healthy volunteers; SAD 50 mg): 0 Number (%) | TEAE Aspartate aminotransferase increased (healthy volunteers; SAD 50 mg): 0 Number (%) | TEAE Blood creatine phosphokinase increased (healthy volunteers; SAD 50 mg): 0 Number (%) | TEAE Catheter site pain (healthy volunteers; SAD 50 mg): 0 Number (%) | TEAE Dizziness (healthy volunteers; SAD 50 mg): 0 Number (%) | TEAE Headache (healthy volunteers; SAD 50 mg): 1 (16.7) Number (%) | TEAE Hematuria (healthy volunteers; SAD 50 mg): 0 Number (%) | TEAE Nausea (healthy volunteers; SAD 50 mg): 0 Number (%) | TEAE Pyrexia (healthy volunteers; SAD 50 mg): 0 Number (%) | TEAE Syncope (healthy volunteers; SAD 50 mg): 1 (16.7) Number (%) | TEAE Upper respiratory tract infection (healthy volunteers; SAD 50 mg): 1 (16.7) Number (%) | TEAE Urinary tract infection (healthy volunteers; SAD 50 mg): 0 Number (%) | AEs leading to IP discontinuation (healthy volunteers; SAD 100 mg): 0 Number (%) | Any CTCAE Grade ≥ 3 (healthy volunteers; SAD 100 mg): 0 Number (%) | Any TEAE (healthy volunteers; SAD 100 mg): 0 Number (%) | Death (healthy volunteers; SAD 100 mg): 0 Number (%) | SAE (healthy volunteers; SAD 100 mg): 0 Number (%) | TEAE Alanine aminotransferase increased (healthy volunteers; SAD 100 mg): 0 Number (%) | TEAE Aspartate aminotransferase increased (healthy volunteers; SAD 100 mg): 0 Number (%) | TEAE Blood creatine phosphokinase increased (healthy volunteers; SAD 100 mg): 0 Number (%) | TEAE Catheter site pain (healthy volunteers; SAD 100 mg): 0 Number (%) | TEAE Dizziness (healthy volunteers; SAD 100 mg): 0 Number (%) | TEAE Headache (healthy volunteers; SAD 100 mg): 0 Number (%) | TEAE Hematuria (healthy volunteers; SAD 100 mg): 0 Number (%) | TEAE Nausea (healthy volunteers; SAD 100 mg): 0 Number (%) | TEAE Pyrexia (healthy volunteers; SAD 100 mg): 0 Number (%) | TEAE Syncope (healthy volunteers; SAD 100 mg): 0 Number (%) | TEAE Upper respiratory tract infection (healthy volunteers; SAD 100 mg): 0 Number (%) | TEAE Urinary tract infection (healthy volunteers; SAD 100 mg): 0 Number (%) | AEs leading to IP discontinuation (healthy volunteers; SAD 170 mg): 0 Number (%) | Any CTCAE Grade ≥ 3 (healthy volunteers; SAD 170 mg): 0 Number (%) | Any TEAE (healthy volunteers; SAD 170 mg): 1 (16.7) Number (%) | Death (healthy volunteers; SAD 170 mg): 0 Number (%) | SAE (healthy volunteers; SAD 170 mg): 0 Number (%) | TEAE Alanine aminotransferase increased (healthy volunteers; SAD 170 mg): 0 Number (%) | TEAE Aspartate aminotransferase increased (healthy volunteers; SAD 170 mg): 0 Number (%) | TEAE Blood creatine phosphokinase increased (healthy volunteers; SAD 170 mg): 0 Number (%) | TEAE Catheter site pain (healthy volunteers; SAD 170 mg): 0 Number (%) | TEAE Dizziness (healthy volunteers; SAD 170 mg): 0 Number (%) | TEAE Headache (healthy volunteers; SAD 170 mg): 0 Number (%) | TEAE Hematuria (healthy volunteers; SAD 170 mg): 0 Number (%) | TEAE Nausea (healthy volunteers; SAD 170 mg): 0 Number (%) | TEAE Pyrexia (healthy volunteers; SAD 170 mg): 1 (16.7) Number (%) | TEAE Syncope (healthy volunteers; SAD 170 mg): 0 Number (%) | TEAE Upper respiratory tract infection (healthy volunteers; SAD 170 mg): 0 Number (%) | TEAE Urinary tract infection (healthy volunteers; SAD 170 mg): 1 (16.7) Number (%) | incidence of adverse events (AE) (healthy volunteers; SAD cohorts, all JNT-517 doses (7 of 30)): 23.3% | safety and tolerability (healthy volunteers; healthy participants, SAD 10–170 mg and MAD 14 days): safe and well tolerated
